US20120245137A1 (Zalicus Pharmaceuticals Ltd., priority 2009, published 2012)

Key:
Type in all cases: cell-based
[1] = target: human α1G T-type channels (Homo sapiens, UniProt O43497); assay: T-type calcium channel block, whole cell patch clamp, α1G; conditions: HEK cells stably expressing human α1G; mainly non-inactivated protocol; values above 10,000 nM represented as 10000
In short: (§1)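 Read-out: current block in whole-cell patch clamp of HEK 293 cells stably expressing human α1G or α1H subunits. Compounds were perfused locally in external solution (0.1-0.01% DMSO) under resting and inactivating voltage protocols.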

[2] = target: human α1H T-type channels (Homo sapiens, UniProt O95180); assay: T-type calcium channel block, whole cell patch clamp, α1H; conditions: HEK cells stably expressing human α1H; mainly non-inactivated protocol; values above 10,000 nM represented as 10000
In short: as §1

[3] = target: N-type calcium channel subunits (α1B, α2δ, and β3a) (Homo sapiens, UniProt Q00975); assay: Block of Cav2.2 channel, whole cell voltage clamp, manual and PatchXpress; conditions: Table 5; table follows Assay Example 3 (whole cell voltage clamp / PatchXpress); assay not given
In short: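 Percent block taken as current amplitude ratio with versus without compound, applied in rising doses; IC50 fitted where one cell received multiple doses. Protocol: 50 ms pulses to +20 mV at 0.067 Hz from […] or −90 mV holding; P/n leak subtraction, no junction-potential correction; manual and PatchXpress recordings.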

Chain of human α1H T-type channels (O95180 whole entry): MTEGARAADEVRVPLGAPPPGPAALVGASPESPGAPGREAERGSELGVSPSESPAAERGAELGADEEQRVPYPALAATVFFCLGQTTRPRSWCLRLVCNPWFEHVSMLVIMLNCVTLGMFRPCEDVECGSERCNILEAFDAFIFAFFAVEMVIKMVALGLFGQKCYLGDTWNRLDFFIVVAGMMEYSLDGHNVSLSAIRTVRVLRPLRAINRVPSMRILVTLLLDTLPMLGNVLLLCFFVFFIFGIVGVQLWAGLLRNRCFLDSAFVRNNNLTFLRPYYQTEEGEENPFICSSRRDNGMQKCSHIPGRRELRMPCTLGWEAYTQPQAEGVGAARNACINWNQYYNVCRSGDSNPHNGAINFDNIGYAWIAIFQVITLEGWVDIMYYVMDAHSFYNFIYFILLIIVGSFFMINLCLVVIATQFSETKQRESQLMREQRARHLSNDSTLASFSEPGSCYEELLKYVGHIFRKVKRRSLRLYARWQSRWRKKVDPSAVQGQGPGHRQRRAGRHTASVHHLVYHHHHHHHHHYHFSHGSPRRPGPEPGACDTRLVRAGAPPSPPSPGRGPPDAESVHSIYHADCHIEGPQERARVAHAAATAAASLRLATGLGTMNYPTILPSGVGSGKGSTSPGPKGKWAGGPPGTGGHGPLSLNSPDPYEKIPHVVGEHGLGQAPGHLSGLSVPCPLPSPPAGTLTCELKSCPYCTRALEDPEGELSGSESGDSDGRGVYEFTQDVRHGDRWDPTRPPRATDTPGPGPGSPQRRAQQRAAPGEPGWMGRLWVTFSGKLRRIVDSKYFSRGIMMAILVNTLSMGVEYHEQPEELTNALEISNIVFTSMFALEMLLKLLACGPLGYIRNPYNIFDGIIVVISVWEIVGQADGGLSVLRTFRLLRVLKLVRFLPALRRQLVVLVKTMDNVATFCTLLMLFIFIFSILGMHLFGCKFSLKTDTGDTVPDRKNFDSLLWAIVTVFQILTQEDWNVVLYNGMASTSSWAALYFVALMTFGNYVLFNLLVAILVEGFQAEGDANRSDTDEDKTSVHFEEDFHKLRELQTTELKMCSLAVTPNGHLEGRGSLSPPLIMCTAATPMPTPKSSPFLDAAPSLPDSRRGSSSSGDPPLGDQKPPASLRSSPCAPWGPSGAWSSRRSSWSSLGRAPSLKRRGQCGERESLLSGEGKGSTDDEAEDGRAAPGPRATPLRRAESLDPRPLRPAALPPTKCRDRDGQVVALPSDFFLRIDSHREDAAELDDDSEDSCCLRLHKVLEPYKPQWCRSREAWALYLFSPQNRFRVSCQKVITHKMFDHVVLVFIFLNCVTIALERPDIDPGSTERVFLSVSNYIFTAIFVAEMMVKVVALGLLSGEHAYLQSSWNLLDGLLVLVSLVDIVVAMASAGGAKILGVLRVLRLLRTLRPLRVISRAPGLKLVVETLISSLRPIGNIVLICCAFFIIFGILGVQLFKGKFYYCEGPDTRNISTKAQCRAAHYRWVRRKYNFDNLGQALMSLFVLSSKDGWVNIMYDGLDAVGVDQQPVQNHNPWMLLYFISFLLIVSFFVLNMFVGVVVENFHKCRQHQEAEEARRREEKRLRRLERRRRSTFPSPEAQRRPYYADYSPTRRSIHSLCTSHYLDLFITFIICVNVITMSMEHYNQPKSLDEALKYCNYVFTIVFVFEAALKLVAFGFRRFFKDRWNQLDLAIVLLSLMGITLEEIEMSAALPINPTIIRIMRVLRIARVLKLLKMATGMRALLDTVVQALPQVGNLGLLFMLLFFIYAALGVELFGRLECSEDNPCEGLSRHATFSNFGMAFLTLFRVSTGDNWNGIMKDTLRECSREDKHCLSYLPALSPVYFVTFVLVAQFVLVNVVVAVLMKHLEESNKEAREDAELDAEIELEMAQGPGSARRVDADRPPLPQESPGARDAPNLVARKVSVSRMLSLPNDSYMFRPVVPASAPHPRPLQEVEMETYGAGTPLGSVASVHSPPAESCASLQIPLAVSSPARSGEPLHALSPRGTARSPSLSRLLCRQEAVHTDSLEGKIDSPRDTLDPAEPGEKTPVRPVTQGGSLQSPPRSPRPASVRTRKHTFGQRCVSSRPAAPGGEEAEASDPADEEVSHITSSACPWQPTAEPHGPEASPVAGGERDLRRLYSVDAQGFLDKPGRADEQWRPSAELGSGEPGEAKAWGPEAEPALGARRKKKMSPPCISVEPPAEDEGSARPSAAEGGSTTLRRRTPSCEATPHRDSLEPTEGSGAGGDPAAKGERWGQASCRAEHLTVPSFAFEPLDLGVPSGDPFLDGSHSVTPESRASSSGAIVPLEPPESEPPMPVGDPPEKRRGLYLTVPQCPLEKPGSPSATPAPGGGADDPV
Chain of human α1G T-type channels (O43497 whole entry, the tested form may be a part): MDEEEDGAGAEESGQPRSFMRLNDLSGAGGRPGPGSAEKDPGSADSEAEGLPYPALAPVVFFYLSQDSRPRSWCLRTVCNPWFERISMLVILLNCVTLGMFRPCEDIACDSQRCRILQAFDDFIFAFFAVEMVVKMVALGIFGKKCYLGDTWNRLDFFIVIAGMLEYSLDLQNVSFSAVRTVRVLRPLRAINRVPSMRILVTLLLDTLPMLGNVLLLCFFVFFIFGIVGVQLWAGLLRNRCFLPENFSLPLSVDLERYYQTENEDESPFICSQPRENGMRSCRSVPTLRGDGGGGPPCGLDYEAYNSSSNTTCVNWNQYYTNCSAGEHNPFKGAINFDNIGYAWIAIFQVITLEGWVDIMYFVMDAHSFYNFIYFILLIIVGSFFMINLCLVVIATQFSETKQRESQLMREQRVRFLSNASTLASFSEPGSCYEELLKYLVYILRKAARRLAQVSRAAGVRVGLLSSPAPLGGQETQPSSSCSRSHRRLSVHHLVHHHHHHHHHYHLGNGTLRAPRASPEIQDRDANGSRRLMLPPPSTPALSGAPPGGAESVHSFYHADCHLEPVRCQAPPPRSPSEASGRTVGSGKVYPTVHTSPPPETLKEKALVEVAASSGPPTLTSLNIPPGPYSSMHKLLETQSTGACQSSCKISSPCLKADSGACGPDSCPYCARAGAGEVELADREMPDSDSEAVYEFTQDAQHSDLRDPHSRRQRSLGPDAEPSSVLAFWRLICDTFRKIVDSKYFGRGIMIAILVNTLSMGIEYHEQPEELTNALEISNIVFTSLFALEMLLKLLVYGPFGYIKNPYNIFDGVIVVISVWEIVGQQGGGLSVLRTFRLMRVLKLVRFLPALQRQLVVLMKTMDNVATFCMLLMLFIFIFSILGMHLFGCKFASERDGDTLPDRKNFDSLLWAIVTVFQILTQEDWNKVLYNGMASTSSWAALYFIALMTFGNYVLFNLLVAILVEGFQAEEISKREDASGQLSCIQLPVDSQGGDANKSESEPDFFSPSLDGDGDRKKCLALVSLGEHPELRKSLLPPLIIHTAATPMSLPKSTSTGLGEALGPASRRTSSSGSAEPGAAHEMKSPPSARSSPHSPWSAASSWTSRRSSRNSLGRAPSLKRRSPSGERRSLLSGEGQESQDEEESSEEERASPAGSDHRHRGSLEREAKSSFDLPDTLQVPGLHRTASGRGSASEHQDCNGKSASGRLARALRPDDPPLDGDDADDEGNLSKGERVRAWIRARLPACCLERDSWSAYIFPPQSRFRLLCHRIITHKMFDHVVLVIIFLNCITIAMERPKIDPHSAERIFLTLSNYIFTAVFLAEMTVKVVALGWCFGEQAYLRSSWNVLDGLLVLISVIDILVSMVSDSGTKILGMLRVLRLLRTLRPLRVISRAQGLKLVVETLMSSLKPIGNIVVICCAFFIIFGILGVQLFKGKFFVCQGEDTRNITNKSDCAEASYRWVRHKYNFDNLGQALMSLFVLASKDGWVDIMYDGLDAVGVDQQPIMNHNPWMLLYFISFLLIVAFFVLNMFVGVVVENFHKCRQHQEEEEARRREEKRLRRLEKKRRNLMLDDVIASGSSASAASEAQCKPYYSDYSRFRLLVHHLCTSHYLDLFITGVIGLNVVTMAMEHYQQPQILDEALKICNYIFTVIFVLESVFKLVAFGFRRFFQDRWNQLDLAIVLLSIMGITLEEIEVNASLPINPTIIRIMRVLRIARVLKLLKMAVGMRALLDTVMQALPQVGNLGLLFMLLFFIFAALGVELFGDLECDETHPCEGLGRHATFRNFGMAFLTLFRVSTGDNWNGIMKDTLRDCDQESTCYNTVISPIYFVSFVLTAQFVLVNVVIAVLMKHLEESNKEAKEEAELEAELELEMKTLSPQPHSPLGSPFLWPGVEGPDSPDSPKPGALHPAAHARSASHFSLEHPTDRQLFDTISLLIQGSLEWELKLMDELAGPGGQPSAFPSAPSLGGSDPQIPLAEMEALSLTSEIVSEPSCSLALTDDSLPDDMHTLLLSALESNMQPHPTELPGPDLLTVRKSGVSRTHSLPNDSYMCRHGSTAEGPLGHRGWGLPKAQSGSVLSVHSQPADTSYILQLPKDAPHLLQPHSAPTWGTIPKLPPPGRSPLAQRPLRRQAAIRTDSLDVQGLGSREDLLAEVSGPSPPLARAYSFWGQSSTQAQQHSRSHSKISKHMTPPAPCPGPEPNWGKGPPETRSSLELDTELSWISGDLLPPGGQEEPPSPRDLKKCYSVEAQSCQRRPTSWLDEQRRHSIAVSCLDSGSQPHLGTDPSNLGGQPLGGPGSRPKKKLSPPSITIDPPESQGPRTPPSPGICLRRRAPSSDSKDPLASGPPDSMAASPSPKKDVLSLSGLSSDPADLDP

Molecule | IC50 [1] [nM] | IC50 [2] [nM] | IC50 [3] [nM]
CC(C)(C)NC(=O)CN[C@H]1CC[C@H](S(=O)(=O)c2cccc(C(F)(F)F)c2)CC1 [Compound 69, N-tert-butyl-2-((1R,4R)-4-(3-(trifluoromethyl)phenylsulfonyl)cyclohexylamino)acetamide] | > 10000 | > 10000 | 1650
CN(C(=O)c1ccc(F)c(C(F)(F)F)c1)[C@H]1CC[C@@](F)(S(=O)(=O)c2cc(F)cc(C(F)(F)F)c2)CC1 [Compound 334, 4-fluoro-N-((1S,4S)-4-fluoro-4-(3-fluoro-5-(trifluoromethyl)phenylsulfonyl)cyclohexyl)-N-methyl-3-(trifluorornethyl) benzamide] | > 10000 | 2390 | 360
O=C(N[C@H]1CC[C@@](F)(S(=O)(=O)c2cc(F)cc(C(F)(F)F)c2)CC1)c1cc(C(F)(F)F)n[nH]1 [Compound 324, N-((1S,4S)-4-fluoro-4-(3-fluoro-5-(trifluoromethyl)phenylsulfonyl)cyclohexyl)-3-(trifluoromethyl)-1H-pyrazole-5-carboxamide] | 3180 | 1220 | 1060
O=C(N[C@H]1CC[C@@](F)(S(=O)(=O)c2cccc(C(F)(F)F)c2)CC1)[C@@H]1C[C@@H](Cc2ccc(F)cc2)CN1 [Compound 287, (2S,4R)-N-((1S,4R)-4-fluoro-4-(3-(trifluoromethyl)phenylsulfonyl)cyclohexyl)-4-(4-fluorobenzyl)pyrrolidine-2-carboxamide] | 6500 | 1130 | 310
O=C(Nc1cc(C(F)(F)F)ccn1)[C@H]1C[C@@H](S(=O)(=O)c2cccc(C(F)(F)F)c2)C1 [Compound 410, (1S,3S)-3-(3-(trifluoromethyl)phenylsulfonyl)-N-(4-(trifluoromethyl)pyridin-2-yl)cyclobutanecarboxamide] | 3490 | 1790 | 1240
Cn1nc(C(F)(F)F)cc1C(=O)N[C@H]1CC[C@@](F)(S(=O)(=O)c2cc(F)cc(C(F)(F)F)c2)CC1 [Compound 327, N-((1S,4S)-4-fluoro-4-(3-fluoro-5-(trifluoromethyl)phenylsulfonyl)cyclohexyl)-1-methyl-3-(trifluoromethyl)-1Hpyrazole-5-carboxamide] | 2790 | 750 | 630
O=C(Nc1ccc(Oc2ccc(C(F)(F)F)cn2)nc1)[C@H]1C[C@H](S(=O)(=O)c2cccc(C(F)(F)F)c2)C1 [Compound 400, (1R,3R)-3-(3-(trifluoromethyl)phenylsulfonyl)-N-(6-(5-(trifluoromethyl)pyridin-2-yloxy)pyridin-3-yl) cyclobutanecarboxamide] | > 10000 | 5920 | 3830
O=C(N[C@H]1CC[C@@](F)(S(=O)(=O)c2cccc(C(F)(F)F)c2)CC1)c1ccnc(C(F)(F)F)n1 [Compound 268, N-((1S,4S)-4-fluoro-4-(3-(trifluoromethyl)phenylsulfonyl)cyclohexyl)-2-(trifluoromethyl)pyrimidine-4-carboxamide] | > 10000 | 1910 | 30
COc1cc(C(=O)NCC2(C)CCC(S(=O)(=O)c3cccc(C(F)(F)F)c3)CC2)cc(Cl)n1 (stereo not drawn) [Compound 210, 2-chloro-6-methoxy-N-((1-methyl-4-(3-(trifluoromethyl)phenylsulfonyl)cyclohexyl)methyl)isonicotinamide] | 4950 | 4140 | 380
CC(C)(C)OC(=O)N[C@H]1CC[C@@H](S(=O)(=O)c2cccc(C(F)(F)F)c2)CC1 [Compound 96, tert-butyl(1S,4S)-4-(3-(trifluoromethyl)phenylsulfonyl) cyclohexylcarbamate] | > 10000 | 3820 | 430
CC1(S(=O)(=O)c2cccc(C(F)(F)F)c2)CCC(NC(=O)c2ccn(CC(F)(F)F)n2)CC1 (stereo not drawn) [Compound 7, N-(4-methyl-4-(3-(trifluoromethyl)phenylsulfonyl)cyclohexyl)-l-(2,2,2-trifluoroethyl)-1H-pyrazole-3-carboxamide] | > 10000 | > 10000 | 1580
O=C(N[C@H]1CC[C@@H](CS(=O)(=O)c2cccc(C(F)(F)F)c2)CC1)c1ccc(C(F)(F)F)cn1 [Compound 143, 5-(trifluoromethyl)-N-((1S,4S)-4-((3-(trifluoromethyl)phenylsulfonyl)methyl)cyclohexyl)picolinamide] | > 10000 | 6750 | 950

Now those with a lower IC50 [1], led by results:

IC50 [1] [nM] | IC50 [2] [nM] | IC50 [3] [nM] | Molecule
2370 | 260 | 1120 | O=C(N[C@H]1C[C@H](CS(=O)(=O)c2cccc(C(F)(F)F)c2)C1)c1ccc(C(F)(F)F)cn1 [Compound 347, 5-(trifluoromethyl)-N-((1R,3R)-3-((3-(trifluoromethyl)phenylsulfonyl)methyl)cyclobutyl)picolinamide]
2300 | 3650 | 1080 | CS(=O)(=O)c1nc(C(F)(F)F)ccc1C(=O)N[C@H]1CC[C@@](F)(S(=O)(=O)c2cccc(C(F)(F)F)c2)CC1 [Compound 260]
2010 | 3320 | 210 | Cn1nc(C(F)(F)F)cc1C(=O)N[C@H]1CC[C@@](F)(S(=O)(=O)c2cccc(OC(F)(F)F)c2)CC1 [Compound 255, N-((1S,4S)-4-fluoro-4-(3-(trifluoromethoxy)phenylsulfonyl)cyclohexyl)-1-methyl-3-(trifluoromethyl)-1H-pyrazole-5-carboxamide]
1290 | 1410 | 720 | COc1cc(F)cc(C(=O)NC[C@H]2CC[C@@H](S(=O)(=O)c3cccc(C(F)(F)F)c3)CC2)c1 [Compound 30, 3-fluoro-5-methoxy-N-(((1S,4S)-4-(3-(trifluoromethyl)phenylsulfonyl)cyclohexyl)methyl)benzamide]
1140 | 1110 | 590 | CC1(CNC(=O)c2ccc(C(F)(F)F)cn2)CCC(S(=O)(=O)c2cccc(C(F)(F)F)c2)CC1 (stereo not drawn) [Compound 208, N-((1-methyl-4-(3-(trifluoromethyl)phenylsulfonyl)cyclohexyl)methyl)-5-(trifluoromethyl)picolinamide]
1130 | 1030 | 2520 | O=C(NC1CCC(S(=O)(=O)c2cccc(C(F)(F)F)c2)CC1)c1cnc(C(F)(F)F)nc1 (stereo not drawn) [Compound 9, 2-(trifluoromethyl)-N-(4-(3-(trifluoromethyl)phenylsulfonyl)cyclohexyl)pyrimidine-5-carboxamide]
450 | 670 | 350 | O=C(N[C@H]1CC[C@@](F)(S(=O)(=O)c2cccc(OC(F)(F)F)c2)CC1)c1cncc(C(F)(F)F)c1 [Compound 252, N-((1S,4S)-4-fluoro-4-(3-(trifluoromethoxy)phenylsulfonyl)cyclohexyl)-5-(trifluoromethyl)nicotinamide]
30 | 440 | 660 | 4-chloro-3-fluoro-N-((1R,4R)-4-(3- (trifluoromethyl)phenylsulfonyl) cyclohexyl)benzamide [Compound 123]
